# Legend:
# Dα6-nicotinic receptor = assay type: binding, Drosophila melanogaster; settings: 10 μM; [3H]MLA; intact Xenopus oocytes 3 days post-injection with Dmα6
# Experimental: Xenopus oocytes were injected as previously described for the electrophysiological assay and were used intact for binding assays.
# Two main radioligands were used in binding assays: the conventional α7 radioligand, [^3H]methyllycaconitine (MLA) and [^3H]dihydrospinosyn A (DHSA). For both radioligands, the Binding Buffer used consisted of 10 mM sodium phosphate (7.2-7.4). […] For Xenopus oocyte binding assays, oocytes were pooled (2-5 oocytes) and transferred to 1 ml Binding Buffer. This was followed by gently aspirating the Binding Buffer and replacing with fresh Binding Buffer twice, to wash out any residual oocyte bathing media. The final volume of buffer added to each pool of oocytes was 50-100 μl. […] Subsequent dilutions were made in Binding Buffer. The final concentration of solvent was maintained at less than 0.1% in each well. 25 μl of unlabeled competing compounds were added to the cell suspensions or oocytes. Cells or cell extracts were pre-incubated with compounds for 15-30 minutes, at 10° C. (for [^3H]DHSA) and room-temperature for [^3H]MLA. The samples were gently shaken using a plate shaker. […] Filter mats were dried in an oven at 60° C. and the radioactivity from samples was counted for three minutes with a Wallac MicroBeta Counter (Wallac, Conn.) using Meltilex solid-scintillant (PerkinElmer, Finland). […]
# [1] = test system: Dα6 and C. elegans ric3 expressed in D.Mel-2 cells; assay: [3H]DHSA radioligand displacement binding in D.Mel-2 cells; design: species or system Drosophila melanogaster; settings: D.Mel-2 cells expressing Dα6 and C. elegans ric3
# Experimental: D.Mel-2 cells were seeded into 75 cm^2 flasks at 1.9×10^7 cells/flask in Drosophila SFM containing antibiotic/antimicotic and incubated overnight at 27° C. The transfection mix was prepared in 12×75 mm polystyrene tubes by mixing 1630 μl sterile water, 40 μg pIB/V5-HisA/ric3, 40 μg pIB/V5-HisA/30D and 250 μl CellFectin. The reagents were mixed gently and incubated at room temp for 15 minutes. While the transfection mix was incubating, the cells were washed with 10 ml fresh Drosophila SFM without antibiotics; this media was then removed from the cells and replaced with 6 ml fresh Drosophila SFM without antibiotics. To the transfection mix was added 4 ml Drosophila SFM without antibiotics and this was then transferred to the flask. The reagents were gently mixed by pipetting up and down and then incubated overnight at 27° C.
# D.Mel-2 cells were purchased from Invitrogen (Carlsbad, Calif.) and grown in disposable 125 ml shake flasks using 50 ml volume. Cells were subcultured to 3×10^5 cells/ml twice per week in Drosophila SFM containing 5 ml/L Antibiotic-Antimycotic (100×) (Gibco, Carlsbad, Calif.). D.Mel-2 cells were seeded into a 12-well plate at a cell density of 5×10^5 cells/well and incubated overnight at 27° C. In a 12×75 mm polystyrene tube 6 μg pIB/V5-HisA/ric3, 82 μl sterile H2O and 12 μl CellFectin (Invitrogen, Carlsbad, Calif.) were added. The sample was mixed gently and incubated at room temperature for 15 minutes. While the transfection mix was incubating, media from one well of cells was removed and replaced with 1 ml fresh media without antibiotics. After 15 minutes, the media was removed from cells. To this transfection mix, 0.5 ml media (no antibiotics) was added. This solution was then added to the cells. The mixture was incubated for 48 hrs at 27° C. After 48 hrs, the cells were scraped from the plate using a cell scraper and split into 4 wells of a 6-well plate each containing 2 ml Drosophila SFM with antibiotics. Cells were allowed to attach for 1 hr at 27° C.; the media was removed and replaced with 2 ml fresh media containing 25 μg/ml Blasticidin S (Invitrogen, Carlsbad, Calif.). Cells were incubated at 27° C. for 5 days. After 5 days, the cells were scraped loose from the wells and combined into one tube. Cells were spun down at 600 rpm in a tabletop centrifuge; the media was removed and the cells were resuspended into a 50 ml shake culture in fresh Drosophila SFM containing 25 μg/ml Blasticidin S. The cells were incubated at 27° C./140 rpm. Cells were subcultured twice weekly back to cell density of 3×10^5 cells/ml. After 4 weeks the selection was cut back to 10 μg/ml Blasticidin S. After 3 months of growth under selection, a 12 well plate was seeded at 5×10^5 cells/well and cells were incubated over night at 27° C. The following reagents were added to each of three 12×75 mm polystyrene tubes: 2 μg pMT/V5-HisA/30D, 0.15 μg pCoHygro (Invitrogen, Carlsbad, Calif.) (a […] ratio of expression plasmid:selection plasmid), 89 μl sterile H2O and 12 μl CellFectin. The samples were mixed gently and incubated at room temp for 15 minutes and then transfected as described above. After 24 hrs, the media containing transfection mix was removed and replaced with 1 ml fresh media containing antibiotics. The incubation was continued at 27° C. for another 24 hrs. Cells were scraped loose from the 12-well plate (3 wells) and split into 2, 6-well plates. Cells were allowed to attach for 6 hours at which point, the media was replaced with 2 ml/well fresh media containing 200, 150, 100 or 50 μg/ml hygromycin B. The incubation was continued at 27° C.; every 4-5 days, the media was replaced with media containing hygromycin every 4-5 days. After 2 weeks of selection in the plates, the cells from the 200 μg/ml selection, were scraped loose and then gently pelleted and resuspended in 25 ml fresh media containing 200 μg/ml hygromycin B and then placed into a 125 ml shake flask.
# [2] = test system: Drosophila melanogaster flies of a spinosyn-resistant strain; assay: Adult fly mortality screen, spinosyn-resistant flies; assay type: in vivo
# Experimental: Ten adult Drosophila melanogaster flies (5 males and 5 females) of the Oregon wild-type strain and ten adult flies of a spinosyn-resistant strain were used per treatment. Two sets (of 10 flies) were set-up per treatment. Stocks of spinosyn A and a 21-butenyl-spinosyn analog were formulated at 1000 ppm in 2:1 acetone:water and then diluted to the required concentration in 10% sucrose. Vials received 500 ul of treatment (or solvent for controls) via cotton wicks (approximately ¼ inch) and flies were added to each vial and capped with a cotton plug. Flies were monitored over 72 hours post-treatment while being maintained at room-temperature with a 12:12 light:dark cycle.
# In addition, the spinosyn A resistant flies were >100-fold resistant (based on LD50) to the new class of spinosyns, represented by the 21-butenyl spinosyns.
smiles,measurement,setting,value
"CC[C@H]1CCC[C@H](O[C@H]2CC[C@H](N(C)C)[C@@H](C)O2)[C@@H](C)C(=O)C2=C[C@@H]3[C@@H](C=C[C@@H]4C[C@@H](O[C@@H]5O[C@@H](C)[C@H](OC)[C@@H](OC)[C@H]5OC)C[C@@H]34)[C@@H]2CC(=O)O1 [Spinosyn A, spinosyn A]",% Displacement of Total Binding,Dα6-nicotinic receptor,72%
same,displacement of [3H]DHSA binding,[1],significant displacement
same,mortality,"[2]; 100 ppm in 10% sucrose via cotton wick, 72 hours post-treatment, spinosyn-resistant flies",no significant mortality
same,resistance of spinosyn A resistant flies compared to wild-type flies (based on LD50),"[2]; dose-response data, LD50, resistant vs wild-type flies",at least 100 fold

# Reference: patent US20060269995A1, “Novel assays utilizing nicotinic acetylcholine receptor subunits” (priority 2005, published 2006)
